According to ChEMBL document CHEMBL3991601, “The target landscape of clinical kinase drugs” (Science, 2017):
Counter-ions that a name gives are not always drawn. Calls of active or inactive are those of the source.

Assays:
[1] = biological target: Ribosomal protein S6 kinase beta-1 (Homo sapiens, UniProt P23443)
Ephrin type-A receptor 7 = Ephrin type-A receptor 7 (Homo sapiens, UniProt Q15375)
[2] = biological target: Hepatocyte growth factor receptor (Homo sapiens, UniProt P08581)
[3] = biological target: Bone morphogenetic protein receptor type-1A (Homo sapiens, UniProt P36894)
Bone morphogenetic protein receptor type-1A, sequence (P36894 whole entry): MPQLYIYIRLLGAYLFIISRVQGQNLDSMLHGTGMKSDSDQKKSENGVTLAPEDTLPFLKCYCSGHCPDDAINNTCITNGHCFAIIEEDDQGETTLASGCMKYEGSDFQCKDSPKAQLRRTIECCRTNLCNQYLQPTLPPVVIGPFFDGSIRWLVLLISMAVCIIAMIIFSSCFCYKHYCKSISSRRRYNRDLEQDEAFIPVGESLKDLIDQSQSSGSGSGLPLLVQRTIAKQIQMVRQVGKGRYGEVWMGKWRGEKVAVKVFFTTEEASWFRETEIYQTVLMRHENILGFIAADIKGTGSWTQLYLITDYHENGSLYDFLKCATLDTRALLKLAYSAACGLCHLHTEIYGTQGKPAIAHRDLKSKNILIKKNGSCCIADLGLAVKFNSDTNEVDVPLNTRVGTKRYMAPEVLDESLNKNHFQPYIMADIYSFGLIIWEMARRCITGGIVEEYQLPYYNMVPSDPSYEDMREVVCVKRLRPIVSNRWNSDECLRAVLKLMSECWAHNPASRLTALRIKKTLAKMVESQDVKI

[4] = biological target: Non-receptor tyrosine-protein kinase TYK2 (Homo sapiens, UniProt P29597)
Non-receptor tyrosine-protein kinase TYK2, sequence (P29597 whole entry, canonical isoform): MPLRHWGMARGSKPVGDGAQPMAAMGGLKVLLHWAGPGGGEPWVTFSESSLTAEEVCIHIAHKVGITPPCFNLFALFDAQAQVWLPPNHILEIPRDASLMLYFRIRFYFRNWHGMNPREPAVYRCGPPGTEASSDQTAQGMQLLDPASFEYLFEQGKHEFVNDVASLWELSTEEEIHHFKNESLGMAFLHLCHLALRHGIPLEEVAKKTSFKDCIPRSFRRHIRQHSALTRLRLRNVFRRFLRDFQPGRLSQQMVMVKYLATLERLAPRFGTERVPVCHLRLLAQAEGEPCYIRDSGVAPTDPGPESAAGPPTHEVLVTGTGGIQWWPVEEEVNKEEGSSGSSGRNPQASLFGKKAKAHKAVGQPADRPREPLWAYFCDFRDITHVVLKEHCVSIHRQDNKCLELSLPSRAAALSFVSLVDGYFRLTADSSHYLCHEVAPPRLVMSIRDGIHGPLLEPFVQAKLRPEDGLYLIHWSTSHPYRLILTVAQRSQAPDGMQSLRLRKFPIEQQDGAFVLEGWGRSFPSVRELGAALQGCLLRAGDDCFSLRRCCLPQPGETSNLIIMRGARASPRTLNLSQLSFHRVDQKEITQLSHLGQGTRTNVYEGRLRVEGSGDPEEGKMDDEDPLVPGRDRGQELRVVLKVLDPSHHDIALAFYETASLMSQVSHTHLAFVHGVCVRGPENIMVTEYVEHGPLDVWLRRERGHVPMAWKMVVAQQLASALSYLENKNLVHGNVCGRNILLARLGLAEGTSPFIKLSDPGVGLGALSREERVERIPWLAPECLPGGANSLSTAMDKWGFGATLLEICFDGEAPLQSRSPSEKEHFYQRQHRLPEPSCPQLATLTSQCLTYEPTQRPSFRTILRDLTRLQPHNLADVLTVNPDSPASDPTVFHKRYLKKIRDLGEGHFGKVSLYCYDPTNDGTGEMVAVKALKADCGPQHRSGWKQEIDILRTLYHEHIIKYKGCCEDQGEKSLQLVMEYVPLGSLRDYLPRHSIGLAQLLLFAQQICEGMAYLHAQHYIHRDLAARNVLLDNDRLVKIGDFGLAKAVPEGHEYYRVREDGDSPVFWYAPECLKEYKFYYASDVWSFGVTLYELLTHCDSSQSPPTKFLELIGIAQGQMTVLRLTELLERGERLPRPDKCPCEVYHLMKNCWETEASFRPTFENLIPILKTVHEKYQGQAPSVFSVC

[5] = biological target: Casein kinase I isoform alpha (Homo sapiens, UniProt P48729)
Casein kinase I isoform alpha, sequence (P48729 whole entry, canonical isoform): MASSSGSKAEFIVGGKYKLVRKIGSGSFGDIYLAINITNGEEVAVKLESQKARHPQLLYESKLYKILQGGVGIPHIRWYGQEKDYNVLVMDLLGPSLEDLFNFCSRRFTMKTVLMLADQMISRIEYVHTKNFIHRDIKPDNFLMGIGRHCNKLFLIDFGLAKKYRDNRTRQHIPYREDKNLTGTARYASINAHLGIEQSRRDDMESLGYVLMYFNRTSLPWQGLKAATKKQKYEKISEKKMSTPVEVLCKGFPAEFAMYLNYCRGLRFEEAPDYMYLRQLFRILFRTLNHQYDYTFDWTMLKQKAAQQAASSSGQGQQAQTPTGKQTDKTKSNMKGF

[6] = biological target: DnaJ homolog subfamily A member 1 (Homo sapiens, UniProt P31689)
DnaJ homolog subfamily A member 1, sequence (P31689 whole entry): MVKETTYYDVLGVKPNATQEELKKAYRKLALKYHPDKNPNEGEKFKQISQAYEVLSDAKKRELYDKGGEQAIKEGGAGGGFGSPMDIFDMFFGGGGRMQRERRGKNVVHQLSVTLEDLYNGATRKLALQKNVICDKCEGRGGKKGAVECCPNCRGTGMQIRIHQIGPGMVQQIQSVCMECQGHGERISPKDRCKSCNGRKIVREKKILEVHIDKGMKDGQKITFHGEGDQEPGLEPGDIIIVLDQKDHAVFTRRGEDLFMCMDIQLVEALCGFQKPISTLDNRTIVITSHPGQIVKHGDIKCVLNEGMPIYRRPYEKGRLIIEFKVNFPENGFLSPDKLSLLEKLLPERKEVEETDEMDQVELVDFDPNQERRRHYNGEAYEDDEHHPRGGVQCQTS

[7] = biological target: T1, Serine/threonine-protein kinase LATS1 (Homo sapiens, UniProt O95835)
T1 sequence (O95835 whole entry): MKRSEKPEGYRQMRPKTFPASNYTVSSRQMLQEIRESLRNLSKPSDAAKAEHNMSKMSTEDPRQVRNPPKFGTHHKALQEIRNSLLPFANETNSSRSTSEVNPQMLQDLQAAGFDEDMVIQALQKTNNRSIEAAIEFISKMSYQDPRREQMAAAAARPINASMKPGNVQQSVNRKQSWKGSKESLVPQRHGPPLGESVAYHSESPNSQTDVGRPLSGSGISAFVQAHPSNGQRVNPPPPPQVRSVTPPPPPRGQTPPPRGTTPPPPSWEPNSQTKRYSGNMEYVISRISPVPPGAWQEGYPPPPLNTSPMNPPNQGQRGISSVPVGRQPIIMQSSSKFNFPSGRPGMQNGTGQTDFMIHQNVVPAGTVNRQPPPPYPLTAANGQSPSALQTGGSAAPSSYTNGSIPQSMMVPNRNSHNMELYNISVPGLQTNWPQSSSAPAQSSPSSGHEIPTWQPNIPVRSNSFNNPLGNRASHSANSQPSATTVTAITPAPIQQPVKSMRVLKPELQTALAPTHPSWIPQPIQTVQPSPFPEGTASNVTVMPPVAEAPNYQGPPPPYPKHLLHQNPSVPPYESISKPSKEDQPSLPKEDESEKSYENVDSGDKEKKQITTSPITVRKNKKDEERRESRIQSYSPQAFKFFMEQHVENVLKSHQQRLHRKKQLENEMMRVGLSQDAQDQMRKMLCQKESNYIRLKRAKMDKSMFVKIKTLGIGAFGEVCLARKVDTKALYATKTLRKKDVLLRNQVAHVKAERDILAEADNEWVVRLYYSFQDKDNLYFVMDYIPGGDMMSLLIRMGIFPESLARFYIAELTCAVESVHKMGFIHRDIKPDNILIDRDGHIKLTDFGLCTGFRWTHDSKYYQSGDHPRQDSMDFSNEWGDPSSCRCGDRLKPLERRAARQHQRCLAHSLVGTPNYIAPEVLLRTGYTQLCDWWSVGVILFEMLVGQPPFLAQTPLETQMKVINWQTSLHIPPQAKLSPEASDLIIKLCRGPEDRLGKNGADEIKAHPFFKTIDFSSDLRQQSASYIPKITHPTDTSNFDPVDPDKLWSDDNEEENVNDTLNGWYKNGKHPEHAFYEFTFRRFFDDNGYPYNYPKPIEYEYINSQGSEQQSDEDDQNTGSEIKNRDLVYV

[8] = biological target: T2, Dynamin-like GTPase OPA1, mitochondrial (Homo sapiens, UniProt O60313)
T2 sequence (O60313 whole entry): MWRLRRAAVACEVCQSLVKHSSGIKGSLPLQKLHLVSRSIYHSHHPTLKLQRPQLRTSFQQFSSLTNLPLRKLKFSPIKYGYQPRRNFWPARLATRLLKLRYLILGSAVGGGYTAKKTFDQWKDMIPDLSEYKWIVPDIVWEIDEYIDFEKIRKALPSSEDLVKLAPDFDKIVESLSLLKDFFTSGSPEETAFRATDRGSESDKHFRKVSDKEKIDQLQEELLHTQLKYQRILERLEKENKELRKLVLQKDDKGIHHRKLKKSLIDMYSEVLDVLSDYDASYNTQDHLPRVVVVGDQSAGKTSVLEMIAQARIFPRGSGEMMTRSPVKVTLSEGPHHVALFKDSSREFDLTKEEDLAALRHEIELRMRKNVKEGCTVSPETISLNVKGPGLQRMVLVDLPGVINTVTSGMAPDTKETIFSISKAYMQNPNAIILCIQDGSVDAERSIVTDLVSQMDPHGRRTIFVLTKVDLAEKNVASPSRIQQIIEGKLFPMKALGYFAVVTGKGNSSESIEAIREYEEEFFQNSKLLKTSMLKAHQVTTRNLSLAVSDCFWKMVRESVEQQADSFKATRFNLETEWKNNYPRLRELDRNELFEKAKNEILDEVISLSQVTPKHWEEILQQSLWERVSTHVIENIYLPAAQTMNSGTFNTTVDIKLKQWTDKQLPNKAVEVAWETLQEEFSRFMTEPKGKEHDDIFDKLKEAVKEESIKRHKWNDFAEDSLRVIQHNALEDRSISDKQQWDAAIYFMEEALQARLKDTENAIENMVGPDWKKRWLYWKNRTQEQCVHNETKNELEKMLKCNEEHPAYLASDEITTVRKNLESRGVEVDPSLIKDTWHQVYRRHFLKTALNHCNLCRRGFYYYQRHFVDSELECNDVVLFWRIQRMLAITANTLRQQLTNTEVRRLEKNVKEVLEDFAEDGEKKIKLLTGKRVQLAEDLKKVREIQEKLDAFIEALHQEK

[9] = biological target: T3, Uncharacterized protein FLJ45252 (Homo sapiens, UniProt Q6ZSR9); settings: read-out: Kd apparent; k-562, colo 205, sk-n-be(2) and mv-4-11
T3 sequence (Q6ZSR9 whole entry): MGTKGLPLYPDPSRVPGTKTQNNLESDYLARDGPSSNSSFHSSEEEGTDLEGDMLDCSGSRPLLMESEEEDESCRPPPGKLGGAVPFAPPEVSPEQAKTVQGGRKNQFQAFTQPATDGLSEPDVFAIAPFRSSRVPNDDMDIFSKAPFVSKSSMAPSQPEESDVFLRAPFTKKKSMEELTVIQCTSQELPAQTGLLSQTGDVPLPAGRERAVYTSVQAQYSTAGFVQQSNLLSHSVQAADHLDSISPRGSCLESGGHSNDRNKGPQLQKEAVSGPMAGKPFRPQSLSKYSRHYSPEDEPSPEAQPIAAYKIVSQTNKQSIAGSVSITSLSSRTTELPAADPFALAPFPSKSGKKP

[10] = biological target: Cyclin-dependent kinase 1 (Homo sapiens, UniProt P06493)
Cyclin-dependent kinase 1, sequence (P06493 whole entry): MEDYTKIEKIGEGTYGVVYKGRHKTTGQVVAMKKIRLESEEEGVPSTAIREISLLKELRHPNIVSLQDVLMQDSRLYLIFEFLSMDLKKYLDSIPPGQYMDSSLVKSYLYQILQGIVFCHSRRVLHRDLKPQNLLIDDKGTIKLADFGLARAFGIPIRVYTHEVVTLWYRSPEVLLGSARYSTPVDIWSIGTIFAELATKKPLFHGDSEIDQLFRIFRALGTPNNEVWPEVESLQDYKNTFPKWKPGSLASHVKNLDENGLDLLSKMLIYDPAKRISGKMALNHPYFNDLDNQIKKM

DNA topoisomerase 2-beta = DNA topoisomerase 2-beta (Homo sapiens, UniProt Q02880)
DNA topoisomerase 2-beta, sequence (Q02880 whole entry): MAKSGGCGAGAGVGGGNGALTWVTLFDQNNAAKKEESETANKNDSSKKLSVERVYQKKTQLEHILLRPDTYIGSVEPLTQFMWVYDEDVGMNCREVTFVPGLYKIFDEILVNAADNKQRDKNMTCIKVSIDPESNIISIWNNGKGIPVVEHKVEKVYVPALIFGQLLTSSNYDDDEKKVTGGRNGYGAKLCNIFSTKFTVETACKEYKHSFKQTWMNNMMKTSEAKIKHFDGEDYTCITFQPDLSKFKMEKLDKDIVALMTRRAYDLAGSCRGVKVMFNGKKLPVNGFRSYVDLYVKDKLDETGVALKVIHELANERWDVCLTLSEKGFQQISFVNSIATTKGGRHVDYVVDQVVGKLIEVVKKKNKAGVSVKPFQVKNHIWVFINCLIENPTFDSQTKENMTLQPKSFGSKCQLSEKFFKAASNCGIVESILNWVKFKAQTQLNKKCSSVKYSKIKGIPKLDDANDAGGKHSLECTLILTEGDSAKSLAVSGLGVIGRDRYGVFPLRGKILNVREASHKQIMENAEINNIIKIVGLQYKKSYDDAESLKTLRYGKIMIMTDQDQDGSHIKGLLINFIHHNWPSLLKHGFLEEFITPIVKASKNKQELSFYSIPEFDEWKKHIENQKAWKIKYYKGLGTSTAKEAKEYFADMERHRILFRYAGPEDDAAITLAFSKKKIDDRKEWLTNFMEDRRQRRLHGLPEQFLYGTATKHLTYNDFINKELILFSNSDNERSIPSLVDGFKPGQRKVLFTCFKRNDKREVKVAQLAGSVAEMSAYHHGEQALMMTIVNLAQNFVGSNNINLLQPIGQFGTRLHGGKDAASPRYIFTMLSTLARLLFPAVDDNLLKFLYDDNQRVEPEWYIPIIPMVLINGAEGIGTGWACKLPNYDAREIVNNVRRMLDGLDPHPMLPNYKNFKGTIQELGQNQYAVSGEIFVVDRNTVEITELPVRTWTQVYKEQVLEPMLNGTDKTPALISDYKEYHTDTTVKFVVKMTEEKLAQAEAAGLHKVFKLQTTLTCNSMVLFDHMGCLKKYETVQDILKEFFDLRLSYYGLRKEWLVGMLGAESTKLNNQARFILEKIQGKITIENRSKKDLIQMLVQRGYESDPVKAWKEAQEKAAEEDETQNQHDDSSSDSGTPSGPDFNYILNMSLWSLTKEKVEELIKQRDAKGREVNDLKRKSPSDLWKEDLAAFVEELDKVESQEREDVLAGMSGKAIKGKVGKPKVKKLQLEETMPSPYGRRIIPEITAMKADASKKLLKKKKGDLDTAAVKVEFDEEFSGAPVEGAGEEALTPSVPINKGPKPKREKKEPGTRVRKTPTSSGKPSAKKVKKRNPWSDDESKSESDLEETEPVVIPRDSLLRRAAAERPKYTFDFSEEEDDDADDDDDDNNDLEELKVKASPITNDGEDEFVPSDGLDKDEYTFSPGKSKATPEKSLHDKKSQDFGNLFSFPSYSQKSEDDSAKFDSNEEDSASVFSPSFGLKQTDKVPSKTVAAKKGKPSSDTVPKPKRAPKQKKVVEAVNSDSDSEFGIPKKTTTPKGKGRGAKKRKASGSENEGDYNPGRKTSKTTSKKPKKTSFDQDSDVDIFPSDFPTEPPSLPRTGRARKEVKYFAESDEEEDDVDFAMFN
Also: in the data inactive means no Kd found up to 30 µM.

Ribosomal protein S6 kinase beta-1, sequence (P23443 whole entry): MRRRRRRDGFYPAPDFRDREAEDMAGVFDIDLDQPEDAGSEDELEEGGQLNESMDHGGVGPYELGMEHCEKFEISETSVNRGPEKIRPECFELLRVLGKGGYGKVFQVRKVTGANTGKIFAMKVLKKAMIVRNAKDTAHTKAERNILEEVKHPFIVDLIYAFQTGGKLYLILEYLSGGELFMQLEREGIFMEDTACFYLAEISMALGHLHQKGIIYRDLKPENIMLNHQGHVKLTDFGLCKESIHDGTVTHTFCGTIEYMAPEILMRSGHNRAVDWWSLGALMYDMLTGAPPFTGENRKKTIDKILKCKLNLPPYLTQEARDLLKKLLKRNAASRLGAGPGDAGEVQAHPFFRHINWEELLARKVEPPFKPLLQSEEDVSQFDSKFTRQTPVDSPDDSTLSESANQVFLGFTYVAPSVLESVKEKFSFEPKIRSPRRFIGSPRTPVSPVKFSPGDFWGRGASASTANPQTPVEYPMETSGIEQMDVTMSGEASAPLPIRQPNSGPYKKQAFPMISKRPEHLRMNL

Row | Compound | Kd [1] | Kd (Ephrin type-A receptor 7) | Kd [2] | Kd [3] | Kd [4] | Kd [5] | Kd [6] | Kd [7] | Kd [8] | Kd [9] | Kd [10] | Kd (DNA topoisomerase 2-beta)
1 | COc1cc([C@@H]2c3cc4c(cc3[C@H](O)[C@H]3COC(=O)[C@@H]23)OCO4)cc(OC)c1OC [AXL-1717] | > 30 µM (inactive) | > 30 µM (inactive) | > 30 µM (inactive) | > 30 µM (inactive) | > 30 µM (inactive) | > 30 µM (inactive) | > 30 µM (inactive) | > 30 µM (inactive) | > 30 µM (inactive) | > 30 µM (inactive) | > 30 µM (inactive) | > 30 µM (inactive)
2 | NC(=O)Nc1cc(-c2cccc(F)c2)sc1C(=O)N[C@H]1CCCNC1 [AZD-7762] | > 30 µM (inactive) | > 30 µM (inactive) | > 30 µM (inactive) | > 30 µM (inactive) | > 30 µM (inactive) | > 30 µM (inactive) | > 30 µM (inactive) | > 30 µM (inactive) | > 30 µM (inactive) | 0.12 µM (active) | > 30 µM (inactive) | > 30 µM (inactive)
3 | Cn1cnc2c(F)c(Nc3ccc(Br)cc3F)c(C(=O)NOCCO)cc21 [BINIMETINIB] | > 30 µM (inactive) | > 30 µM (inactive) | > 30 µM (inactive) | > 30 µM (inactive) | > 30 µM (inactive) | > 30 µM (inactive) | > 30 µM (inactive) | > 30 µM (inactive) | > 30 µM (inactive) | > 30 µM (inactive) | > 30 µM (inactive) | > 30 µM (inactive)
4 | CCn1c(C(=O)N(C2CC2)C2CC2)cc2c3c(ncn3C)c(Nc3cc(C)n(C)n3)nc21 [BMS-911543] | > 30 µM (inactive) | > 30 µM (inactive) | > 30 µM (inactive) | > 30 µM (inactive) | > 30 µM (inactive) | > 30 µM (inactive) | > 30 µM (inactive) | > 30 µM (inactive) | > 30 µM (inactive) | > 30 µM (inactive) | > 30 µM (inactive) | > 30 µM (inactive)
5 | Cc1cc(Nc2ncc(Cl)c(Nc3ccccc3S(=O)(=O)C(C)C)n2)c(OC(C)C)cc1C1CCNCC1 [CERITINIB] | > 30 µM (inactive) | > 30 µM (inactive) | > 30 µM (inactive) | > 30 µM (inactive) | > 30 µM (inactive) | > 30 µM (inactive) | > 30 µM (inactive) | > 30 µM (inactive) | > 30 µM (inactive) | > 30 µM (inactive) | > 30 µM (inactive) | > 30 µM (inactive)
6 | COc1ccc(S(=O)(=O)N(C(C)=O)c2ccccc2/C=C/c2cc[n+]([O-])cc2)cc1 [HMN-214] | > 30 µM (inactive) | > 30 µM (inactive) | 1.39 µM | > 30 µM (inactive) | > 30 µM (inactive) | > 30 µM (inactive) | > 30 µM (inactive) | > 30 µM (inactive) | > 30 µM (inactive) | > 30 µM (inactive) | > 30 µM (inactive) | > 30 µM (inactive)

Results, then the molecule that gave them:

Row | Kd [1] | Kd (Ephrin type-A receptor 7) | Kd [2] | Kd [3] | Kd [4] | Kd [5] | Kd [6] | Kd [7] | Kd [8] | Kd [9] | Kd [10] | Kd (DNA topoisomerase 2-beta) | Compound
7 | > 30 µM (inactive) | > 30 µM (inactive) | > 30 µM (inactive) | > 30 µM (inactive) | > 30 µM (inactive) | > 30 µM (inactive) | > 30 µM (inactive) | > 30 µM (inactive) | > 30 µM (inactive) | > 30 µM (inactive) | > 30 µM (inactive) | > 30 µM (inactive) | Cc1nc(NC(=O)N2CCC[C@H]2C(N)=O)sc1-c1ccnc(C(C)(C)C(F)(F)F)c1 [ALPELISIB]
8 | > 30 µM (inactive) | > 30 µM (inactive) | > 30 µM (inactive) | > 30 µM (inactive) | > 30 µM (inactive) | > 30 µM (inactive) | > 30 µM (inactive) | > 30 µM (inactive) | > 30 µM (inactive) | 3.56 µM (active) | > 30 µM (inactive) | 2.6 µM | Cc1csc(-c2nnc(Nc3ccc(Oc4ncccc4-c4ccnc(N)n4)cc3)c3ccccc23)c1 [AMG-900]
9 | > 30 µM (inactive) | > 30 µM (inactive) | > 30 µM (inactive) | > 30 µM (inactive) | > 30 µM (inactive) | > 30 µM (inactive) | > 30 µM (inactive) | > 30 µM (inactive) | > 30 µM (inactive) | > 30 µM (inactive) | > 30 µM (inactive) | > 30 µM (inactive) | C=CC(=O)Nc1cc2c(Nc3ccc(F)c(Cl)c3)ncnc2cc1C#CC(C)(C)N1CCN(C)CC1 [AV-412 FREE BASE]
10 | > 30 µM (inactive) | > 30 µM (inactive) | > 30 µM (inactive) | > 30 µM (inactive) | > 30 µM (inactive) | > 30 µM (inactive) | > 30 µM (inactive) | > 30 µM (inactive) | > 30 µM (inactive) | > 30 µM (inactive) | > 30 µM (inactive) | > 30 µM (inactive) | COc1cc2ncnc(Oc3cccc(NC(=O)Nc4cc(C(C)(C)C(F)(F)F)on4)c3)c2cc1OC [CEP-32496]
11 | > 30 µM (inactive) | > 30 µM (inactive) | > 30 µM (inactive) | > 30 µM (inactive) | > 30 µM (inactive) | > 30 µM (inactive) | > 30 µM (inactive) | > 30 µM (inactive) | > 30 µM (inactive) | > 30 µM (inactive) | > 30 µM (inactive) | > 30 µM (inactive) | COCC(=O)NC/C=C/c1ccc2ncnc(Nc3ccc(Oc4ccc(C)nc4)c(C)c3)c2c1 [CP-724714]
12 | > 30 µM (inactive) | > 30 µM (inactive) | > 30 µM (inactive) | > 30 µM (inactive) | 0.032 µM (active) | > 30 µM (inactive) | > 30 µM (inactive) | 0.261 µM (active) | > 30 µM (inactive) | 0.0007 µM (active) | > 30 µM (inactive) | > 30 µM (inactive) | CCS(=O)(=O)N1CCN(c2ccc(Nc3ncc(C(N)=O)c(NC4CC4)n3)cc2)CC1 [Cerdulatinib Hydrochloride]
